Experimental data taken from patent publication US11541027B2 (DelMar Pharmaceuticals, Inc., priority 2014, dated 2023).

Experiments:
[1] = tested on: H1975 (TKI-resistant) human lung adenocarcinoma xenograft tumors; assay: H1975 NSCLC xenograft tumor model in female Rag2 mice
Method: Rag2 mice bearing subcutaneous human lung adenocarcinoma xenograft tumors of either TKI-resistant (H1975) or TKI-sensitive (A549) origin were treated.
Two human NSCLC cell lines, A549 (TKI-sensitive) and H1975 (TKI-resistant), were used as xenograft tumor models in female Rag2 mice. The mice were 6 to 8 weeks of age and weighed 18-23 grams. 10 mice were used per group.
Rag2 mice bearing subcutaneous human lung adenocarcinoma xenograft tumors of either TKI-sensitive (A549) or TKI-resistant (H1975) origin were treated. […] Saline was used as control treatment. Disease progression was evaluated by tumor volume, clinical observations and body weight measurements. Blood samples were analyzed for CBC/differential analyses to assess myelosuppression or other changes in blood chemistry.
Cell number for inoculation was 5×10^6 cells for A549 cells in an injection volume of 50 μL per animal. For H1975 cells, cell number for inoculation was 2×10^6 cells in an injection volume of 50 μL per animal.
Treatment was initiated at average tumor volume of 100-150 mm^3.
Tumor growth delay (TGD) was calculated according to Equation (2): TGD=DTtx−DTcontrol (2).
For these calculations, TV is tumor volume, tx is treatment, int is initial, DT is doubling time for mean tumor volume from 200 mm^3 to 400 mm^3 for A549 or from 300 mm^3 to 600 mm^3 for H1975. MTV is mean tumor volume in mm^3 and TCR is tumor control ratio.
Disease progression was evaluated by tumor volume, clinical observations and body weight measurements.

RIF-1 cell-line = assay: Standard syngeneic mouse fibrosarcoma model, tumor growth delay; format: in vivo; conditions: 10 mg/kg, single IP injection, RIF-1 in C3H mice; for Tumor Delay: vs untreated
[2] = Stability of reconstituted dianhydrogalactitol stock solution; format: physicochemical; conditions: 8 mg/mL in 0.9% sodium chloride for injection
Method: For administration, 5 mL of 0.9% sodium chloride for injection, USP (saline) was added to yield a DAG solution with a concentration of 8 mg/mL.

2780-CP = assay: 5-day MTT cytotoxicity, wild-type p53 ovarian tumor panel; format: cell-based, human; conditions: wt-p53, cisplatin-resistant, N = 3, read-out: DAG IC50 (μM) Mean
Description: (§1) The ovarian tumor panel lines are as follows: • is A2780; ▪ is 2780-CP16; ▴ is OVCAR-10; ▾ is HEY; and ♦ is OVCA-433. Dose-response curves were undertaken using a 5-day MTT assay to determine cell viability. The A2780 represents a cisplatin-sensitive model, whereas the other four cell lines are cisplatin-resistant. The cell line 2780-CP16 was derived for cisplatin resistance from A2780. The properties of some of these cell lines are disclosed in G. S. Hagopian et al., “Expression of p53 in Cisplatin-Resistant Ovarian Cell Lines: Modulation with the Novel Platinum Analog (1R,2R-Diaminocyclohexane)(trans-diacetato)(dichloro)-platinum(IV),” Clin. Cancer Res. 5: 655-663 (1999), and in Z. H. Siddik et al., “Independent Pathways of p53 Induction by Cisplatin and X-Rays in a Cisplatin-Resistant Cell Line,” Cancer Res. 58: 698-703 (1998), both incorporated herein by this reference.
(§2) The data of FIG. 7 are shown in Table 8 in terms of the IC50 of dianhdrogalactitol in the wild-type p53 human ovarian tumor panel.

A2780 = assay: as above; format: cell-based, human; conditions: A2780, wt-p53, cisplatin-sensitive, N = 3, read-out: DAG IC50 (μM) Mean
Description: as §1, §2

Hey = assay: as above; format: cell-based, human; conditions: wt-p53, cisplatin-resistant, N = 3, read-out: DAG IC50 (μM) Mean
Description: as §1, §2

OVCA-433 = assay: as above; format: cell-based, human; conditions: OVCA-433, wt-p53, cisplatin-resistant, N = 3, read-out: DAG IC50 (μM) Mean
Description: as §1, §2

Ovcar-10 = assay: as above; format: cell-based, human; conditions: Ovcar-10, wt-p53, cisplatin-resistant, N = 3, read-out: DAG IC50 (μM) Mean
Description: as §1, §2

A549 = assay: Cytotoxicity in NSCLC tumor models; format: cell-based, human; conditions: A549, p53 wt; N = 3
Description: (§3) The cell lines include cell lines with wild-type p53, cell lines with mutant p53, and cell lines in which p53 has been knocked out (“null”). The properties of these cell lines are described in F. Bunz et al., “Requirement for p53 and p21 to Sustain G2 Arrest After DNA Damage,” Science 282: 1497-1501 (1998), incorporated herein by this reference.

H1299 = assay: Cytotoxicity in NSCLC tumor models; format: cell-based, human; conditions: H1299, p53 null; N = 3
Description: as §3

H157 = assay: Cytotoxicity in NSCLC tumor models; format: cell-based, human; conditions: H157, p53 mu; N = 3
Description: as §3

H1975 = assay: Cytotoxicity in NSCLC tumor models; format: cell-based, human; conditions: H1975, p53 mu; N = 3
Description: as §3

H2122 = assay: Cytotoxicity in NSCLC tumor models; format: cell-based, human; conditions: H2122, p53 mu; N = 3
Description: as §3

H226 = assay: Cytotoxicity in NSCLC tumor models; format: cell-based, human; conditions: H226, p53 wt; N = 3
Description: as §3

H460 = assay: Cytotoxicity in NSCLC tumor models; format: cell-based, human; conditions: H460, p53 wt; N = 3; listed as DAG
Description: as §3

H838 = assay: Cytotoxicity in NSCLC tumor models; format: cell-based, human; conditions: H838, p53 wt; N = 3
Description: as §3

SkLU1 = assay: Cytotoxicity in NSCLC tumor models; format: cell-based, human; conditions: SkLU1, p53 mu; N = 3
Description: as §3

[3] = tested on: NSCLC cell lines other than H460; assay: Cytotoxicity in NSCLC tumor models, range over the cell lines other than H460; format: cell-based, human; conditions: NSCLC cell lines other than H460, single agents
[4] = 4 mg/kg i.p., stopped after 6 doses

In the case of dianhydrogalactitol, the “MTV at Day 31” value ([1]; 2 mg/kg i.p. M, W, F × 3) is reported as 396 mm^3, the “Median survival” value ([1]; 2 mg/kg i.p. M, W, F × 3) is reported as 31 days and the “TCR at Day 31” value ([1]; 2 mg/kg i.p. M, W, F × 3, tumor control ratio) is reported as 0.87. The “MTV at Day 31” value ([1]; 3 mg/kg i.p. M, W, F × 3) was 383 mm^3, the “Median survival” value ([1]; 3 mg/kg i.p. M, W, F × 3) was 31 days and the “TCR at Day 31” value ([1]; 3 mg/kg i.p. M, W, F × 3, tumor control ratio) was 0.84. For the same substance, the body weight ([1]; 4 mg/kg i.p. (group 5), treatment stopped after 6 doses, mice then quickly recovered) was “significant body weight loss”, the “MTV at Day 31” value [1, 4] was 262 mm^3 and the “Median survival” value [1, 4] was 41 days. For the same substance, the “TCR at Day 31” value ([1]; 4 mg/kg i.p., stopped after 6 doses, tumor control ratio) was 0.57, the “Days to 4 × Median Tumor Size” value (RIF-1 cell-line) was 11.45 days and the “Tumor Delay” value (RIF-1 cell-line) was 5.16 days. The “Tumor Delay” value (RIF-1 cell-line; listed as dianhydrogalactitol) was 5.6 days, the “time for which the stock solution was stable” value ([2]; 4° C.) was 24 h and the “time for which the stock solution was stable” value ([2]; room temperature) was 4 h. The IC50 (2780-CP) was 2.2 µM, the IC50 (A2780) was 0.54 µM and the IC50 (Hey) was 2.1 µM. For the same substance, the IC50 (OVCA-433) was 2.3 µM, the IC50 (Ovcar-10) was 3.6 µM and the IC50 (A549) was 1.75 µM. It also gave an IC50 (H1299) of 2.37 µM, an IC50 (H157) of 4.48 µM and an IC50 (H1975) of 0.9 µM. For the same substance, the IC50 (H2122) was 2.84 µM, the IC50 (H226) was 6.11 µM and the IC50 (H460) was 0.49 µM. For the same substance, the IC50 (H838) was 4.52 µM, the IC50 (SkLU1) was 2.72 µM and the IC50 [3] was 0.9 to 6.1 µM.
